System: T1, tubulin
T1 construct: gene TUBA1B; pure tubulin, alpha-beta heterodimer (colchicine site at alpha/beta interface); mixture of brain isotypes
Test: fluorescence competition (displacement of MTC), Equigra V5.[…] fit
Format: binding
Settings: colchicine site, competitive with MTC; 10 mM phosphate pH 7, 1 mM EDTA, 1.5 mM MgCl2, 0.1 mM GTP, 25 °C; printed exponent ambiguous (10^5 or 10^4), unreliable

## O=C1C(=O)N(Cc2cccc3ccccc23)c2c(Br)cc(Br)cc21 [N1M-isatin, 5,7-dibromo-N-(naphthalene-1-ylmethyl)isatin]
  Binding affinity (M^-1) ± SEM^a: 1.4 ± 0.2 × 10^5(× 10^4)

Source: publication PMC7229617, “N-alkylisatin-based microtubule destabilizers bind to the colchicine site on tubulin and retain efficacy in drug resistant acute lymphoblastic leukemia cell lines with less in vitro neurotoxicity” (Cancer Cell International, 2020)
